Results as given in patent publication US10745401B2, “Condensed lactam derivative” (Sumitomo Dainippon Pharma Co., Ltd., priority 2018, dated 2020).

Experiments:
human 5-HT1A receptor [1] = molecular target: T1, human 5-HT1A receptor (Homo sapiens (Human), UniProt P08908); assay: Test 2: agonist activity for human 5-HT1A receptor ([35S]GTPγS binding); assay type: biochemical; settings: for EC50: [35S]GTPγS binding, concentration at which half the activity of Emax was obtained; for Emax at 10 µM: agonist activity in the presence of 10 μM of compound, relative to 100 μmol/L 5-HT
Experimental: Test 2: Evaluation of Agonist Activity for Human 5-HT1A Receptor
CHO cell membrane fraction in which human 5-HT1A receptor was expressed as used in Test 1 was purchased. To a buffer containing guanosine diphosphate were added a test compound dissolved in DMSO, each receptor membrane sample diluted with buffer, and [^35S] Guanosine 5′-O-[gamma-thio]triphosphate (GTPγS). The mixture was incubated at room temperature for 60 minutes. Then, the mixture was added quickly on a glassfiber filter plate (Multiscreen FB, Millipore, Inc.), and vacuum-filtered. Radioactivity remaining on the […] was measured with a liquid scintillation counter. Agonist activity was calculated from the following formula.

[2] = Test 4: metabolic stability test in human hepatic microsome; assay type: in vitro ADME; settings: 0.1 mg/mL microsome, 0.1 μmol/L compound, 37° C., 30 minutes
Experimental: Test 4: Metabolic Stability Test in Human Hepatic Microsome
The stability of the present compound in human hepatic microsome metabolism was evaluated as mentioned below. Human hepatic microsome was obtained from Xenontech. Human hepatic microsome, NADPH, and each test compound were mixed in 25 mmol/L phosphate buffer solution (pH 7.4) to reach the following concentrations as shown below, and the mixture was incubated at 37° C. for 30 minutes. • Human hepatic microsome: 0.1 mg/mL • NAPDH: 3.2 mmol/L • Test compound: 0.1 μmol/L
The residual ratio of the test compound in each sample after 30 minutes was measured by LC-MS, and the metabolic stability in human hepatic microsome was calculated from the following formula. Metabolic stability in human hepatic microsome (mL/min/mg protein)=−LN (residual ratio)/30/0.1

human 5-HT1A receptor [3] = molecular target: T1, human 5-HT1A receptor; assay: Test 1: binding activity for human 5-HT1A receptor ([3H]8-OH-DPAT, CHO cell membrane fraction)
Experimental: (§1) Test 1: Evaluation of Binding Activity for Human 5-HT1A Receptor, Human 5-HT2A Receptor, and Human D2 Receptor
(§2) Binding affinity of the present compound for human 5-HT1A receptor, human 5-HT2A receptor, and human D2 receptor was measured by the following procedures.
(§3) Each mixture was incubated at room temperature for 60 minutes. Then, the mixture was added quickly on a glassfiber filter plate (Multiscreen FB, Millipore, Inc.) coated with 0.3% aqueous polyethylenimine, and vacuum-filtered. Radioactivity remaining on the filter was measured with a liquid scintillation counter (PerkinElmer, Inc.). Binding inhibition rate was calculated from the following formula.
(§4) IC50 value was calculated by Hill analysis (Physiology, 1910, 40, 190-200). Ki of each compound was calculated from the following formula. Binding inhibition constant (Ki)=IC50/(1+S/Kd) wherein S is concentration of ligand; Kd is a binding dissociation constant of ligand to membrane, which is calculated from a saturated binding experiment conducted with the same cell membrane. A small Ki value means strong binding ability to a receptor.

human D2 receptor = human D2 receptor (Homo sapiens (Human), UniProt P14416); assay: Test 1: binding activity for human D2 receptor ([3H]Spiperone, CHO cell membrane fraction); settings: human D2 receptor, [3H]Spiperone
Experimental: as §1, §2, §3
as §4, with “Ki” for “IC50 value was calculated by Hill analysis (Physiology, 1910, 40, 190-200). Ki”

hERG channel = hERG channel (Homo sapiens (Human), UniProt Q12809); assay: Test 6-1: inhibitory activity for hERG channel (auto patch clamp, Qpatch); assay type: cell-based; settings: whole cell auto patch clamp, hERG-CHO cells; read-out: hERG inhibition IC50
Experimental: Test 6-1: Evaluation of Inhibitory Activity for hERG Channel
Inhibitory activity of the present compound for hERG channel was measured by whole cell patch clamp method with an auto patch clamp system using CHO cells in which hERG channel involved in human rapidly activating delayed rectifier potassium current (IKr) was forcibly expressed.
hERG-CHO cells purchased from ChanTest Cop. were cultured in a CO2 incubator at 37° C., and dissociated from a flask with trypsin shortly before the measurement of hERG current, to prepare a cell suspension.
Extracellular fluid: 2 mmol/L CaCl2, 1 mmol/L MgCl2, 10 mmol/L HEPES, 4 mmol/L KCl, 145 mmol/L NaCl, 10 mmol/L Glucose
Intracellular fluid: 5.4 mmol/L CaCl2, 1.8 mmol/L MgCl2, 10 mmol/L HEPES, 31 mmol/L KOH, 10 mmol/L EGTA, 120 mmol/L KCl, 4 mmol/L Na2-ATP
Test compound solution: Test compound was dissolved in DMSO to reach the concentration of 2 mmol/L or 20 mmol/L, in order to prepare a test compound solution. […] (Measurement of Current Value and Data Analysis)
The cell suspension, the extracellular fluid, the intracellular fluid, and the measurement plate were set in the auto patch clamp system, and hERG current was measured by whole cell patch clamp method. […] Each pulse interval was 15 seconds. The data analysis was carried out with Qpatch Assay Software (Biolin Scientific). The test was carried out by applying incrementally 4 concentrations of each test compound, and the average of the maximum peak tail currents which were obtained from the last 3 stimulations in each concentration was determined as the evaluated data. Based on the current inhibition rate for a pre-applied current at each concentration of each test compound, IC50 value was calculated by Hill equation with the software.

Chain of human D2 receptor (P14416 whole entry): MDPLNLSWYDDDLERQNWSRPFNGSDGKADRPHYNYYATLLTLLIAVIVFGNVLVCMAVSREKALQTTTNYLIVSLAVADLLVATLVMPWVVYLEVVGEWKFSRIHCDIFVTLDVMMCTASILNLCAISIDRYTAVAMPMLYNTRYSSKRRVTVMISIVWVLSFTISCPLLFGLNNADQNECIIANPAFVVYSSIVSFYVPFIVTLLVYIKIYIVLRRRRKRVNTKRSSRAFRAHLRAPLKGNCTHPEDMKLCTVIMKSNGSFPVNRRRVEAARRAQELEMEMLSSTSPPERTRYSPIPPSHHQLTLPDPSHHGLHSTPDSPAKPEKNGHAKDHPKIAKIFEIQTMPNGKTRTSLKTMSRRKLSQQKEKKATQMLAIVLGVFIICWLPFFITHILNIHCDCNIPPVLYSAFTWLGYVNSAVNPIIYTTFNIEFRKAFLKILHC
T1 sequence (P08908 whole entry): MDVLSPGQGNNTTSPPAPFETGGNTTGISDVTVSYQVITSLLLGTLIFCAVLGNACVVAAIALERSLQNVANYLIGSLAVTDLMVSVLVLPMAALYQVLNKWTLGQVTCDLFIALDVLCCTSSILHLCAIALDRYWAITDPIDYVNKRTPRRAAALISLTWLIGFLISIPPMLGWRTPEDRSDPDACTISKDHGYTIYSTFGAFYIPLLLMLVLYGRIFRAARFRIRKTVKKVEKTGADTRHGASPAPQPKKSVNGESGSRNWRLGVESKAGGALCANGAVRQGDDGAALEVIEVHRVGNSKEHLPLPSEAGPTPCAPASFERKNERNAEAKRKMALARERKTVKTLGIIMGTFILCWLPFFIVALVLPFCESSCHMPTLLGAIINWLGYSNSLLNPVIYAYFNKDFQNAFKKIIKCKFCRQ
Chain of hERG channel (Q12809 whole entry): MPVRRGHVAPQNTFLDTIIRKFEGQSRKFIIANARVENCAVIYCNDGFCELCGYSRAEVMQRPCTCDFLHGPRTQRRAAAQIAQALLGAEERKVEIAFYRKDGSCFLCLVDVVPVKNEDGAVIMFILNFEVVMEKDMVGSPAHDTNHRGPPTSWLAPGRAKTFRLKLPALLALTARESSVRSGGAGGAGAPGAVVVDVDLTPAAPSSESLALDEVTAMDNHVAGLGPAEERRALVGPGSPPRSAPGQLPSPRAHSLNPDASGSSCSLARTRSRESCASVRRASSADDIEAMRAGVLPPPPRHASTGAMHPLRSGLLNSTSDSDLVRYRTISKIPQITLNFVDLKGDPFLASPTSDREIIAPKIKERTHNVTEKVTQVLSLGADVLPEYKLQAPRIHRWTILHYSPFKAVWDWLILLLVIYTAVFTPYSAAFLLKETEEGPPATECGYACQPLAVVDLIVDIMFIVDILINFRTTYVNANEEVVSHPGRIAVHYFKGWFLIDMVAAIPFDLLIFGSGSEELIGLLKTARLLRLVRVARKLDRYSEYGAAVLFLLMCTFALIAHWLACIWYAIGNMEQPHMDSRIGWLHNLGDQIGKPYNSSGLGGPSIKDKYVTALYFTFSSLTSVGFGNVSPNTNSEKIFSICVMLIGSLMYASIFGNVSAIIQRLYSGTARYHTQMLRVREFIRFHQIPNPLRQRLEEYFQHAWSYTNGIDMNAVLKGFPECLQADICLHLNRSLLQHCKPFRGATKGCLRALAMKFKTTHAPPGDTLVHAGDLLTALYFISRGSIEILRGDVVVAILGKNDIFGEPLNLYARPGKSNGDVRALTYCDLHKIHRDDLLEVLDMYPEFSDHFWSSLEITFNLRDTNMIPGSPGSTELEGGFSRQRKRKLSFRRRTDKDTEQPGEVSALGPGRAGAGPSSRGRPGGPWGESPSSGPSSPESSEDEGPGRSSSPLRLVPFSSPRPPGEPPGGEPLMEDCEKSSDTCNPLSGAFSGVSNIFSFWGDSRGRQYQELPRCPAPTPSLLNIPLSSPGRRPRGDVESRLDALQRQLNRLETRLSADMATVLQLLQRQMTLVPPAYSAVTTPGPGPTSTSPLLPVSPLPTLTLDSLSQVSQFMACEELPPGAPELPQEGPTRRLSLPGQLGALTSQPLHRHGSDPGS

SMILES: O=C1c2cnn(C3CC3)c2CCN1CCN1CCC(c2noc3ccccc23)CC1 [Example 161]
- EC50 (human 5-HT1A receptor [1]): 6180 nM
- Emax at 10 µM (human 5-HT1A receptor [1]): 17%
- Metabolic stability in human hepatic microsome [2]: <0.05 mL/min/mg protein
- Ki (human 5-HT1A receptor [3]): 203 nM
- Ki (human D2 receptor): 216 nM

SMILES: Cc1ncc2c(=O)n(CCN3CCN(c4nsc5ccccc45)CC3)ccc2n1 [Example 95]
- EC50 (human 5-HT1A receptor [1]): 77.9 nM
- Emax at 10 µM (human 5-HT1A receptor [1]): 62%
- Metabolic stability in human hepatic microsome [2]: 0.143 mL/min/mg protein
- Ki (human 5-HT1A receptor [3]): 7.91 nM
- Ki (human D2 receptor): 2580 nM

SMILES: O=C1c2cccnc2CCN1CCN1CCC(c2noc3ccccc23)CC1 [Example 128]
- EC50 (human 5-HT1A receptor [1]): 35.9 nM
- Emax at 10 µM (human 5-HT1A receptor [1]): 33%
- Metabolic stability in human hepatic microsome [2]: <0.05 mL/min/mg protein
- Ki (human 5-HT1A receptor [3]): 83.2 nM
- Ki (human D2 receptor): 625 nM

SMILES: CC(C)n1ncc2c1CCN(CCN1CCN(c3nsc4ccccc34)CC1)C2=O [Example 158]
- EC50 (human 5-HT1A receptor [1]): 921 nM
- Emax at 10 µM (human 5-HT1A receptor [1]): 12%
- Metabolic stability in human hepatic microsome [2]: 0.113 mL/min/mg protein
- Ki (human 5-HT1A receptor [3]): 217 nM
- Ki (human D2 receptor): 327 nM

SMILES: CC(C)c1ncc2c(=O)n(CCN3CCN(c4nsc5ccccc45)CC3)ccc2n1 [Example 181]
- EC50 (human 5-HT1A receptor [1]): 79 nM
- Emax at 10 µM (human 5-HT1A receptor [1]): 53%
- Metabolic stability in human hepatic microsome [2]: 0.791 mL/min/mg protein
- Ki (human 5-HT1A receptor [3]): 48.6 nM
- Ki (human D2 receptor): 3690 nM

SMILES: CC(C)c1nc2c(o1)C(=O)N(CCN1CCC(c3noc4ccccc34)CC1)CC2 [Example 164]
- EC50 (human 5-HT1A receptor [1]): 69.5 nM
- Emax at 10 µM (human 5-HT1A receptor [1]): 48%
- Metabolic stability in human hepatic microsome [2]: 0.097 mL/min/mg protein
- Ki (human 5-HT1A receptor [3]): 11.7 nM
- IC50 (hERG channel): 1000 nM

SMILES: O=C1c2cn[nH]c2CCN1CCN1CCC(c2noc3ccccc23)CC1 [Example 189, 5-{2-[4-(1,2-Benzoisoxazol-3-yl)piperidin-1-yl]ethyl}-1,5,6,7-tetrahydro-4H-pyrazolo[4,3-c]pyridin-4-one]
- EC50 (human 5-HT1A receptor [1]): 690 nM
- Emax at 10 µM (human 5-HT1A receptor [1]): 49%
- Metabolic stability in human hepatic microsome [2]: <0.05 mL/min/mg protein
- Ki (human 5-HT1A receptor [3]): 98.4 nM
- IC50 (hERG channel): 1800 nM

SMILES: CC(CN1CCC(c2noc3cc(F)ccc23)CC1)N1CCc2cccnc2C1=O (centres unmarked) [Example 122]
- EC50 (human 5-HT1A receptor [1]): 121 nM
- Emax at 10 µM (human 5-HT1A receptor [1]): 23%
- Metabolic stability in human hepatic microsome [2]: <0.05 mL/min/mg protein
- Ki (human 5-HT1A receptor [3]): 24 nM
- Ki (human D2 receptor): 537 nM

SMILES: O=C1c2cn[nH]c2CCN1CCN1CCN(c2nsc3ccccc23)CC1 [Example 169]
- EC50 (human 5-HT1A receptor [1]): 62.9 nM
- Emax at 10 µM (human 5-HT1A receptor [1]): 44%
- Ki (human 5-HT1A receptor [3]): 44.2 nM
- Ki (human D2 receptor): 1920 nM

SMILES: CC(C)n1ncc2c1CCN(CCN1CCC(c3noc4ccccc34)CC1)C2=O [Example 159]
- EC50 (human 5-HT1A receptor [1]): 854 nM
- Emax at 10 µM (human 5-HT1A receptor [1]): 18%
- Metabolic stability in human hepatic microsome [2]: <0.05 mL/min/mg protein
- Ki (human 5-HT1A receptor [3]): 255 nM
- Ki (human D2 receptor): 373 nM

SMILES: O=C1c2oc(C3CC3)nc2CCN1CCN1CCN(c2nsc3ccccc23)CC1 [Example 67]
- EC50 (human 5-HT1A receptor [1]): 3.19 nM
- Emax at 10 µM (human 5-HT1A receptor [1]): 65%
- Metabolic stability in human hepatic microsome [2]: 0.269 mL/min/mg protein
- Ki (human 5-HT1A receptor [3]): 1.17 nM
- IC50 (hERG channel): 1600 nM

SMILES: O=c1c2cnc(C3CC3)nc2ccn1CCN1CCN(c2nsc3ccccc23)CC1 [Example 182]
- EC50 (human 5-HT1A receptor [1]): 7.85 nM
- Emax at 10 µM (human 5-HT1A receptor [1]): 40%
- Metabolic stability in human hepatic microsome [2]: 0.726 mL/min/mg protein
- Ki (human 5-HT1A receptor [3]): 10.9 nM
- Ki (human D2 receptor): 1400 nM

SMILES: Cc1cc2c(cn1)C(=O)N(CCN1CCN(c3noc4ccccc34)CC1)CC2(C)C [Example 86]
- EC50 (human 5-HT1A receptor [1]): 16 nM
- Emax at 10 µM (human 5-HT1A receptor [1]): 51%
- Ki (human 5-HT1A receptor [3]): 9.9 nM
- Ki (human D2 receptor): 1210 nM

SMILES: Cc1ccc2c(C3CCN(CCN4CCc5cccnc5C4=O)CC3)noc2c1 [Example 118]
- EC50 (human 5-HT1A receptor [1]): 550 nM
- Emax at 10 µM (human 5-HT1A receptor [1]): 5%
- Ki (human 5-HT1A receptor [3]): 73.1 nM
- Ki (human D2 receptor): 276 nM

SMILES: O=C1c2ncccc2CCC1CCN1CCN(c2noc3cc(F)ccc23)CC1 (centres unmarked) [Example 143]
- EC50 (human 5-HT1A receptor [1]): 1040 nM
- Emax at 10 µM (human 5-HT1A receptor [1]): 31%
- Ki (human 5-HT1A receptor [3]): 26.5 nM
- Ki (human D2 receptor): 402 nM
- IC50 (hERG channel): 800 nM

SMILES: O=C1c2cnn(C3CC3)c2CCN1CCN1CCN(c2nsc3ccccc23)CC1 [Example 160]
- EC50 (human 5-HT1A receptor [1]): 844 nM
- Emax at 10 µM (human 5-HT1A receptor [1]): 43%
- Metabolic stability in human hepatic microsome [2]: 0.13 mL/min/mg protein
- Ki (human 5-HT1A receptor [3]): 20.2 nM
- Ki (human D2 receptor): 170 nM
